According to patent US8748428B2, “Use of a PKC inhibitor” (Novartis AG, priority 2010, dated 2014):

Experiments:
[1] = system: OCI-Ly10 cells; test: Growth inhibition, CellTiter-Glo, 5 days; type: cell-based; details: Homo sapiens, OCI-Ly10, 120 h; ABC DLBCL, CD79A mutation; 5 days treatment; read-out: growth inhibitory IC50, OCI-Ly10
From the text: (§1) Two pharmacological PKC inhibitors: (i) the pan-PKC inhibitor, Sotrastaurin, also known as AEB071, and (ii) the PKCa/b-selective compound, 3-[2-chloro-7-[(dimethylamino)methyl]-1-naphthalenyl]-4-[7-[2-(2-methoxyethoxy)ethoxy]-1H-indol-3-yl]-1H-pyrrole-2,5-dione (referred to herein as “Compound B”), were used to evaluate the proliferation of several diffuse large B cell lymphoma (DLBCL) lines. The IKKb-selective inhibitors N-(6-chloro-7-methoxy-9H-β-carbolin-8-yl)-2-methylnicotinamide (referred to herein as “MLN120B”) and N-[(2R,6R)-2,6-dimethyl-4-piperidinyl]-4-(7-fluoro-1H-indol-3-yl)-2-pyrimidinamine (referred to herein as “Compound A”) were used as control compounds. ABC DLBCL cell lines (OCI-LY3, OCI-LY10, HBL1, U2932, TMD8, Su-DHL2) and GC DLBCL cell lines (Su-DHL4, DB, K-422) were treated for 5 days with PKC inhibitors (A) Sotrastaurin (AEB071) or (B) Compound B; IKKb inhibitors (C) MLN120B or (D) Compound A. Cells were plated in 96-well plates (Corning, #3358) at 5000 cells/well in 100 μL and treated with DMSO or inhibitors at concentrations ranging from 160 nM to 20 μM (2-fold dilutions). Following 5 days of treatment, cells were lysed with CellTiter-Glo® Luminescent Cell Viability Assay reagent (Promega, G7573), lysates were transferred to opaque 96-well plates (Corning, #3971), and luminescence signal was read using the Envision. Percent growth was calculated relative to median DMSO signal.
(§2) While all ABC DLBCL cell lines were sensitive to IKK inhibitors, their response to PKC inhibitors varied strongly (Table 1A below). The cell lines that are insensitive to PKC inhibitors, OCI-Ly3 and Su-DHL2, have reported mutations in CARD11 and A20, respectively. […] The fact that these oncogenic lesions are thought to function downstream of PKCβ in CBM-NFkB signaling provides a molecular rationale for their insensitivity. […] See, Compagno, M., et al, “Mutations of multiple genes cause deregulation of NF-κB in diffuse large B-cell lymphoma” Nature, 459 (7247), 717-722 (2009)). […] Tables 1A and 1B below show the growth inhibitory IC50 values, which were determined by measuring ATP concentration (Cell Titer Glo), for the indicated compounds in the indicated cell lines. IC50 values were determined as the concentration of compound that leads to 50% reduction of cell growth.

[2] = system: HBL1 cells; test: Growth inhibition, CellTiter-Glo, 5 days; type: cell-based; details: HBL1, 120 h; ABC DLBCL, CD79B mutation; 5 days treatment; read-out: growth inhibitory IC50, HBL1
From the text: as §1, §2

[3] = system: Su-DHL2 cells; test: Growth inhibition, CellTiter-Glo, 5 days; type: cell-based; details: Homo sapiens, SU-DHL-2, 120 h; ABC DLBCL, A20 mutation; 5 days treatment; read-out: growth inhibitory IC50, Su-DHL2
From the text: as §1, §2

[4] = system: U2392 cells; test: Growth inhibition, CellTiter-Glo, 5 days; type: cell-based; details: 120 h; ABC DLBCL, TAK1 mutation; 5 days treatment; read-out: growth inhibitory IC50, U2392
From the text: as §1, §2

[5] = system: OCI-Ly3 cells; test: Growth inhibition, CellTiter-Glo, 5 days; type: cell-based; details: Homo sapiens, OCI-Ly3, 120 h; ABC DLBCL, CARD11 mutation; 5 days treatment; read-out: growth inhibitory IC50, OCI-Ly3
From the text: as §1, §2

[6] = system: TMD8 cells; test: Growth inhibition, CellTiter-Glo, 5 days; type: cell-based; details: Homo sapiens, TMD8, 120 h; ABC DLBCL, CD79B mutation; 5 days treatment; read-out: growth inhibitory IC50, TMD8
From the text: as §1, §2

[7] = system: K422 cells; test: Growth inhibition, CellTiter-Glo, 5 days; type: cell-based; details: 120 h; GC DLBCL, no NFkB mutation; 5 days treatment; read-out: growth inhibitory IC50, K422
From the text: as §1, §2

[8] = system: DB cells; test: Growth inhibition, CellTiter-Glo, 5 days; type: cell-based; details: Homo sapiens, 120 h, GC DLBCL, no NFkB mutation, 5 days treatment, read-out: growth inhibitory IC50, DB
From the text: as §1, §2

[9] = system: Su-DHL4 cells; test: Growth inhibition, CellTiter-Glo, 5 days; type: cell-based; details: Homo sapiens, SU-DHL-4, 120 h; GC DLBCL, no NFkB mutation; 5 days treatment; read-out: growth inhibitory IC50, Su-DHL4
From the text: as §1, §2

[10] = system: TMD8 xenograft; test: Subcutaneous TMD8 xenograft model, tumor growth; type: in vivo, SCID-beige mice; details: 80 mg/kg, tid, daily oral dosing; p<0.05 vs vehicle
Description: CD79 mutant ABC DLBCL were also shown to be sensitive to PKC inhibition in an in vivo setting by using a subcutaneous TMD8 xenograft model. Female SCID-beige mice were purchased from Charles River Labs (Wilmington Mass.) and housed in temperature and a humidity-controlled vivarium with a 12 hours light cycle and provided food and water ad libitum. Mice were implanted subcutaneously with 10×10^6 TMD8 cells in 50% matrigel (BD Biosciences, #354234) in the right dorsal axillary region, and animals were randomized into treatment groups when tumor sizes average ˜160 mm^3 (21 days post-implantation). AEB071 was formulated in 20% PEG400 and 4.5% 0.1 M HCl in D5W. Tumor volume was measured by callipering in 2 dimensions and calculated as (Length×Width^2)/2. Animals were callipered twice weekly during treatment to monitor effects on tumor growth. […] T/C percentage was calculated as the mean change in tumor volumes of treated animals divided by the mean change in tumor volumes of vehicle animals and multiplied by 100. Data are expressed as mean±SEM, and differences are considered statistically significant at p<0.05 by Student t-test.

`CN1CCN(c2nc(C3=C(c4c[nH]c5ccccc45)C(=O)NC3=O)c3ccccc3n2)CC1` [AEB071, 3-(1H-Indol-3-yl)-4-[2-(4-methylpiperazin-1-yl)quinazolin-4-yl]-1H-pyrrole-2,5-dione] was tested, and the IC50 [1] was 1.3 µM, the IC50 [2] was 0.5 µM and the IC50 [3] was greater than 20 µM. For the same compound, the IC50 [4] was 5 µM, the IC50 [5] was greater than 20 µM and the IC50 [6] was 0.2 µM. It also gave an IC50 [7] greater than 20 µM, an IC50 [8] greater than 20 µM and an IC50 [9] greater than 20 µM. The “T/C (tumor growth)” value [10] was 17%.
